These are literature values, as cited in patent US20040197905A1, “Methods and devices for monitoring cellular metabolism in microfluidic cell-retaining chambers” (Thermogenic Imagining, priority 2003, published 2004).

Read-outs that look alike come from different tables or passages of the source.

As to carboxy SNARF-1, the pKa reads like this: (at 37° C.) 7.3-7.4; (at room temperature) “about 7.5”.
